Test results: publication PMC5218480 (PLoS ONE, 2017)

System: MV-4-11 cells
Test: Gene expression microarray analysis (Affymetrix PrimeView) and GSEA
Assay type: cell-based, human
Design: RFU PODN (11730768_x_at) / Fold change /veh PODN (11730768_x_at) / RFU LINC00158 (11744669_a_at) / Fold change /veh LINC00158 (11744669_a_at) / RFU DUSP10 (11751237_a_at) / Fold change /veh DUSP10 (11751237_a_at) / RFU ID3 (11757404_x_at) / Fold change /veh ID3 (11757404_x_at) / RFU PLEKHG5 (11737974_s_at) / Fold change /veh PLEKHG5 (11737974_s_at) / RFU LRRC4B (11730491_at) / Fold change /veh LRRC4B (11730491_at) / RFU GIMAP4 (11747438_a_at) / Fold change /veh GIMAP4 (11747438_a_at) / RFU KRT8 (11758183_x_at) / Fold change /veh KRT8 (11758183_x_at) / RFU CNN1 (11734310_a_at) / Fold change /veh CNN1 (11734310_a_at) / RFU VPS37D (11726825_at) / Fold change /veh VPS37D (11726825_at) / RFU C10orf10 (11716522_x_at) / Fold change /veh C10orf10 (11716522_x_at) / RFU KIR2DL2 /// KIR2DL4 /// KIR2DL5A /// KIR2DL5B /// KIR2DS1 /// KIR2DS2 /// KIR2DS3 /// KIR2DS4 /// KIR3DL3 /// KIR3DL3 /// KIR3DS1 (11738374_at) / Fold change /veh KIR2DL2 /// KIR2DL4 /// KIR2DL5A /// KIR2DL5B /// KIR2DS1 /// KIR2DS2 /// KIR2DS3 /// KIR2DS4 /// KIR3DL3 /// KIR3DL3 /// KIR3DS1 (11738374_at) / RFU C1QL1 (11718748_at) / Fold change /veh C1QL1 (11718748_at) / RFU TMPRSS4 (11747572_a_at) / Fold change /veh TMPRSS4 (11747572_a_at) / RFU HAMP (11756126_x_at) / Fold change /veh HAMP (11756126_x_at) / RFU RNFT2 (11725882_a_at) / Fold change /veh RNFT2 (11725882_a_at) / RFU NR4A2 (11747474_a_at) / Fold change /veh NR4A2 (11747474_a_at) / RFU ABCC12 (11746883_a_at) / Fold change /veh ABCC12 (11746883_a_at) / RFU TMEM136 (11760407_x_at) / Fold change /veh TMEM136 (11760407_x_at) / RFU CLDN22 /// WWC2 (11732394_at) / Fold change /veh CLDN22 /// WWC2 (11732394_at) / RFU HLA-DPB1 (11760878_x_at) / Fold change /veh HLA-DPB1 (11760878_x_at) / RFU SPINT1 (11716480_a_at) / Fold change /veh SPINT1 (11716480_a_at) / RFU GAP43 (11754022_s_at) / Fold change /veh GAP43 (11754022_s_at) / RFU A4GNT (11735810_at) / Fold change /veh A4GNT (11735810_at) / RFU PRB3 (11715151_x_at) / Fold change /veh PRB3 (11715151_x_at) / RFU TUBB4B (11761932_at) / Fold change /veh TUBB4B (11761932_at) / RFU CAPN14 (11732068_a_at) / Fold change /veh CAPN14 (11732068_a_at) / RFU TMCC2 (11721928_a_at) / Fold change /veh TMCC2 (11721928_a_at) / RFU IRGQ (11745062_a_at) / Fold change /veh IRGQ (11745062_a_at) / RFU FAM174B (11720279_a_at) / Fold change /veh FAM174B (11720279_a_at) / RFU TMPRSS4 (11748680_a_at) / Fold change /veh TMPRSS4 (11748680_a_at) / RFU FAM212B (11763350_a_at) / Fold change /veh FAM212B (11763350_a_at) / RFU PLEKHG5 (11743358_a_at) / Fold change /veh PLEKHG5 (11743358_a_at) / RFU ZSCAN30 (11745921_a_at) / Fold change /veh ZSCAN30 (11745921_a_at) / RFU CMKLR1 (11741424_a_at) / Fold change /veh CMKLR1 (11741424_a_at) / RFU LOC101060620 /// MAPK8IP1 (11723275_at) / Fold change /veh LOC101060620 /// MAPK8IP1 (11723275_at) / RFU SPTSSB (11747773_x_at) / Fold change /veh SPTSSB (11747773_x_at) / RFU PRSS12 (11739890_at) / Fold change /veh PRSS12 (11739890_at) / RFU BIN1 (11741810_x_at) / Fold change /veh BIN1 (11741810_x_at) / RFU WNT11 (11732464_a_at) / Fold change /veh WNT11 (11732464_a_at) / RFU C10orf10 (11716521_a_at) / Fold change /veh C10orf10 (11716521_a_at) / RFU C5orf56 (11738089_at) / Fold change /veh C5orf56 (11738089_at) / RFU CYB561 (11721691_x_at) / Fold change /veh CYB561 (11721691_x_at) / RFU ANKRD19P (11752326_a_at) / Fold change /veh ANKRD19P (11752326_a_at) / RFU OR2T12 /// OR2T33 /// OR2T8 (11738714_s_at) / Fold change /veh OR2T12 /// OR2T33 /// OR2T8 (11738714_s_at) / RFU VCAN (11748164_a_at) / Fold change /veh VCAN (11748164_a_at) / RFU JSRP1 (11732532_at) / Fold change /veh JSRP1 (11732532_at) / RFU KRTAP10-11 (11738290_x_at) / Fold change /veh KRTAP10-11 (11738290_x_at) / RFU MYO3A (11730013_a_at) / Fold change /veh MYO3A (11730013_a_at) / RFU EBF3 (11725865_a_at) / Fold change /veh EBF3 (11725865_a_at) / RFU CAMK2N1 (11719241_x_at) / Fold change /veh CAMK2N1 (11719241_x_at) / RFU C5orf56 (11738088_a_at) / Fold change /veh C5orf56 (11738088_a_at) / RFU OLFML3 (11715873_a_at) / Fold change /veh OLFML3 (11715873_a_at) / RFU LOC100653217 /// NTM (11731650_a_at) / Fold change /veh LOC100653217 /// NTM (11731650_a_at) / RFU MAPK11 (11762145_a_at) / Fold change /veh MAPK11 (11762145_a_at) / RFU FIZ1 (11724087_x_at) / Fold change /veh FIZ1 (11724087_x_at) / RFU OASL (11726364_x_at) / Fold change /veh OASL (11726364_x_at) / RFU SOX15 (11748057_x_at) / Fold change /veh SOX15 (11748057_x_at) / RFU CD79A (11719716_a_at) / Fold change /veh CD79A (11719716_a_at) / RFU HIST1H1D (11736915_at) / Fold change /veh HIST1H1D (11736915_at) / RFU CASKIN2 (11723855_a_at) / Fold change /veh CASKIN2 (11723855_a_at) / RFU LOC730098 (11760151_x_at) / Fold change /veh LOC730098 (11760151_x_at) / RFU OR4N2 (11742367_at) / Fold change /veh OR4N2 (11742367_at) / RFU PRRT2 (11749266_a_at) / Fold change /veh PRRT2 (11749266_a_at) / RFU SNX32 (11753110_a_at) / Fold change /veh SNX32 (11753110_a_at) / RFU CDHR5 (11726645_a_at) / Fold change /veh CDHR5 (11726645_a_at) / RFU RCAN1 (11760418_a_at) / Fold change /veh RCAN1 (11760418_a_at) / RFU FAM167A (11723789_a_at) / Fold change /veh FAM167A (11723789_a_at) / RFU FAM26E (11764081_at) / Fold change /veh FAM26E (11764081_at) / RFU ISYNA1 (11749810_s_at) / Fold change /veh ISYNA1 (11749810_s_at) / RFU ACY1 (11761880_at) / Fold change /veh ACY1 (11761880_at) / RFU 11764098_at / Fold change /veh 11764098_at / RFU SAMD14 (11745864_x_at) / Fold change /veh SAMD14 (11745864_x_at) / RFU NPB (11741838_a_at) / Fold change /veh NPB (11741838_a_at) / RFU TMPRSS6 (11731388_a_at) / Fold change /veh TMPRSS6 (11731388_a_at) / RFU KRTAP10-2 (11738614_at) / Fold change /veh KRTAP10-2 (11738614_at) / RFU ARHGAP8 /// PRR5-ARHGAP8 (11727945_x_at) / Fold change /veh ARHGAP8 /// PRR5-ARHGAP8 (11727945_x_at) / RFU KRTAP5-7 /// NADSYN1 (11734609_at) / Fold change /veh KRTAP5-7 /// NADSYN1 (11734609_at) / RFU RASL12 (11751679_a_at) / Fold change /veh RASL12 (11751679_a_at) / RFU CDKN2B (11736163_a_at) / Fold change /veh CDKN2B (11736163_a_at) / RFU PRF1 (11729649_at) / Fold change /veh PRF1 (11729649_at) / RFU, ZNF638 /// ZNF638-IT1 / Fold change vs veh, ZNF638 /// ZNF638-IT1 / RFU, PANK3 / Fold change vs veh, PANK3 / RFU, SH3YL1 / Fold change vs veh, SH3YL1 / RFU, ZEB2 / Fold change vs veh, ZEB2 / RFU, NRIP1 / Fold change vs veh, NRIP1 / RFU, PTTG1IP / Fold change vs veh, PTTG1IP / RFU, CAPN2 / Fold change vs veh, CAPN2 / RFU, MED14 / Fold change vs veh, MED14 / RFU, SNORA58 / Fold change vs veh, SNORA58 / RFU, C1orf63 / Fold change vs veh, C1orf63 / RFU, LRRFIP1 / Fold change vs veh, LRRFIP1 / RFU, NDUFAF7 / Fold change vs veh, NDUFAF7 / RFU, SLC12A2 / Fold change vs veh, SLC12A2 / RFU, IBTK / Fold change vs veh, IBTK / RFU, ESF1 / Fold change vs veh, ESF1 / Fold change vs veh, TMEM50B / RFU, TAOK1 / Fold change vs veh, TAOK1 / RFU, ACBD3 / Fold change vs veh, ACBD3 / RFU, TMA16 / Fold change vs veh, TMA16 / RFU, RWDD3 / Fold change vs veh, RWDD3 / RFU, BCAT1 / Fold change vs veh, BCAT1 / RFU, EDEM3 / Fold change vs veh, EDEM3 / RFU, TMEM33 / Fold change vs veh, TMEM33 / RFU, WDR75 / Fold change vs veh, WDR75 / RFU, AHCTF1 / Fold change vs veh, AHCTF1 / RFU, TFRC / Fold change vs veh, TFRC / RFU, ZDHHC17 / Fold change vs veh, ZDHHC17 / RFU, NOM1 / Fold change vs veh, NOM1 / RFU, ARL8B / Fold change vs veh, ARL8B / RFU, ZBTB11 / Fold change vs veh, ZBTB11 / RFU, TAMM41 / Fold change vs veh, TAMM41 / RFU, KIAA1704 /// LOC100996395 / Fold change vs veh, KIAA1704 /// LOC100996395 / RFU, ING1 / Fold change vs veh, ING1 / RFU, TRMT61B / Fold change vs veh, TRMT61B / RFU, FUBP3 / Fold change vs veh, FUBP3 / RFU, TP53 / Fold change vs veh, TP53 / RFU, TNKS2 / Fold change vs veh, TNKS2 / RFU, ZFP14 / Fold change vs veh, ZFP14 / RFU, ACTR2 / Fold change vs veh, ACTR2 / RFU, PPP3R1 / Fold change vs veh, PPP3R1 / RFU, PIK3R1 / Fold change vs veh, PIK3R1 / RFU, HNRNPA1 / Fold change vs veh, HNRNPA1 / RFU, RNF170 / Fold change vs veh, RNF170 / RFU, ZNF28 / Fold change vs veh, ZNF28 / RFU, RNGTT / Fold change vs veh, RNGTT / RFU, OGT / Fold change vs veh, OGT / RFU, BRD1 / Fold change vs veh, BRD1 / RFU, MARS / Fold change vs veh, MARS / RFU, ZNF655 / Fold change vs veh, ZNF655 / RFU, FAHD1 / Fold change vs veh, FAHD1 / RFU, BDP1 / Fold change vs veh, BDP1 / RFU, LRRCC1 / Fold change vs veh, LRRCC1 / RFU, ARID1A / Fold change vs veh, ARID1A / RFU, ZNF146 / Fold change vs veh, ZNF146 / RFU, ZNF330 / Fold change vs veh, ZNF330 / RFU, GPN3 / Fold change vs veh, GPN3 / RFU, C9orf123 / Fold change vs veh, C9orf123 / RFU, N4BP2L2 / Fold change vs veh, N4BP2L2 / RFU, ARFIP1 / Fold change vs veh, ARFIP1 / RFU, FAM179B / Fold change vs veh, FAM179B / RFU, BCL10 / Fold change vs veh, BCL10 / RFU, UHRF1BP1L / Fold change vs veh, UHRF1BP1L / RFU, BET1 / Fold change vs veh, BET1 / RFU, CNOT2 / Fold change vs veh, CNOT2 / RFU, ZNF268 / Fold change vs veh, ZNF268 / Fold change vs veh, ZNF507 / RFU, DGCR2 / Fold change vs veh, DGCR2 / RFU, WDSUB1 / Fold change vs veh, WDSUB1 / Fold change vs veh, HSP90B1 /// MIR3652 / RFU, ADSS / Fold change vs veh, ADSS / RFU, GK / Fold change vs veh, GK / RFU, ZNF148 / Fold change vs veh, ZNF148 / RFU, TAF9 / Fold change vs veh, TAF9 / RFU, SLC1A5 / Fold change vs veh, SLC1A5 / RFU, SLMO2 / Fold change vs veh, SLMO2 / RFU, ABCC4 / Fold change vs veh, ABCC4 / RFU, LOC101060439 /// RAP1B / Fold change vs veh, LOC101060439 /// RAP1B / RFU, RFX7 / Fold change vs veh, RFX7 / RFU, GTPBP10 / Fold change vs veh, GTPBP10 / RFU, CNEP1R1 / Fold change vs veh, CNEP1R1 / RFU, BIVM-ERCC5 /// ERCC5 / Fold change vs veh, BIVM-ERCC5 /// ERCC5 / RFU, ILF3 / Fold change vs veh, ILF3 / RFU 11762660_at / Fold change /veh 11762660_at / RFU VCAN (11757783_s_at) / Fold change /veh VCAN (11757783_s_at) / RFU DDX43 (11728927_at) / Fold change /veh DDX43 (11728927_at) / RFU KRT8 (11758188_x_at) / Fold change /veh KRT8 (11758188_x_at) / RFU NKD1 (11759106_at) / Fold change /veh NKD1 (11759106_at) / RFU SRD5A1 (11742802_a_at) / Fold change /veh SRD5A1 (11742802_a_at) / RFU TPSAB1 /// TPSB2 (11721975_s_at) / Fold change /veh TPSAB1 /// TPSB2 (11721975_s_at) / RFU GSTM3 (11746129_a_at) / Fold change /veh GSTM3 (11746129_a_at) / RFU IL23R (11737362_x_at) / Fold change /veh IL23R (11737362_x_at) / RFU TMEM51 (11727254_a_at) / Fold change /veh TMEM51 (11727254_a_at) / RFU PIWIL2 (11732686_x_at) / Fold change /veh PIWIL2 (11732686_x_at) / RFU ORM1 (11744905_x_at) / Fold change /veh ORM1 (11744905_x_at) / RFU CCDC152 (11743942_at) / Fold change /veh CCDC152 (11743942_at) / RFU ECM1 (11717891_a_at) / Fold change /veh ECM1 (11717891_a_at) / RFU IL23R (11748794_a_at) / Fold change /veh IL23R (11748794_a_at) / RFU TNFAIP8L3 (11732012_x_at) / Fold change /veh TNFAIP8L3 (11732012_x_at) / RFU MBOAT4 (11741988_at) / Fold change /veh MBOAT4 (11741988_at) / RFU 11764193_at / Fold change /veh 11764193_at / RFU TMEM53 (11763286_at) / Fold change /veh TMEM53 (11763286_at) / RFU MAGEB2 (11727129_at) / Fold change /veh MAGEB2 (11727129_at) / RFU TMEM200A (11744735_a_at) / Fold change /veh TMEM200A (11744735_a_at) / RFU CCDC152 (11751479_a_at) / Fold change /veh CCDC152 (11751479_a_at) / RFU FAM211A (11726209_a_at) / Fold change /veh FAM211A (11726209_a_at) / RFU RGS16 (11746705_a_at) / Fold change /veh RGS16 (11746705_a_at) / RFU VCAN (11755009_s_at) / Fold change /veh VCAN (11755009_s_at) / RFU RHOB (11743442_s_at) / Fold change /veh RHOB (11743442_s_at) / RFU RGS16 (11720943_a_at) / Fold change /veh RGS16 (11720943_a_at) / RFU RGS16 (11720944_at) / Fold change /veh RGS16 (11720944_at) / RFU, VPS4B / Fold change vs veh, VPS4B / RFU, CREB1 / Fold change vs veh, CREB1 / RFU, DNAJC13 / Fold change vs veh, DNAJC13 / RFU, GNAQ / Fold change vs veh, GNAQ / RFU, CDK5R1 / Fold change vs veh, CDK5R1 / RFU, ZRANB3 / Fold change vs veh, ZRANB3 / RFU, CUL4A / Fold change vs veh, CUL4A / RFU, CCNY / Fold change vs veh, CCNY / RFU, UFL1 / Fold change vs veh, UFL1 / RFU, COG3 / Fold change vs veh, COG3 / RFU, DIAPH2 / Fold change vs veh, DIAPH2 / RFU, SKA2 / Fold change vs veh, SKA2 / RFU, AFF3 / Fold change vs veh, AFF3 / RFU, LMF1 / Fold change vs veh, LMF1 / RFU, IPO11 / Fold change vs veh, IPO11 / RFU, DFFB / Fold change vs veh, DFFB / RFU, FOXP1 / Fold change vs veh, FOXP1 / RFU, CARD8 / Fold change vs veh, CARD8 / RFU, STRN3 / Fold change vs veh, STRN3 / RFU, ADK / Fold change vs veh, ADK / RFU, RASSF2 / Fold change vs veh, RASSF2 / RFU, WIPF1 / Fold change vs veh, WIPF1 / RFU, LARP1B / Fold change vs veh, LARP1B / RFU, RASA1 / Fold change vs veh, RASA1 / RFU, RB1 / Fold change vs veh, RB1 / RFU, PPFIA1 / Fold change vs veh, PPFIA1 / RFU, MAT2A / Fold change vs veh, MAT2A / RFU, CCT5 / Fold change vs veh, CCT5 / RFU, WDR92 / Fold change vs veh, WDR92 / RFU, CUX1 / Fold change vs veh, CUX1 / RFU, TTC7A / Fold change vs veh, TTC7A / RFU, TMEM135 / Fold change vs veh, TMEM135 / RFU, DEPTOR / Fold change vs veh, DEPTOR / RFU, CPM / Fold change vs veh, CPM / RFU, DNAJB6 / Fold change vs veh, DNAJB6 / RFU, CACNA2D3 / Fold change vs veh, CACNA2D3 / RFU, DTX4 / Fold change vs veh, DTX4 / RFU, TFCP2 / Fold change vs veh, TFCP2 / RFU, GMCL1 /// GMCL1P1 / Fold change vs veh, GMCL1 /// GMCL1P1 / RFU, AEBP2 / Fold change vs veh, AEBP2 / RFU, SNHG1 /// SNORD22 /// SNORD25 /// SNORD26 /// SNORD27 /// SNORD28 /// SNORD29 /// SNORD31 / Fold change vs veh, SNHG1 /// SNORD22 /// SNORD25 /// SNORD26 /// SNORD27 /// SNORD28 /// SNORD29 /// SNORD31 / Fold change (Aza/veh), C12orf56 (ProbeSet 11735607_a_at) / Fold change (ACY-1035/veh), C12orf56 (ProbeSet 11735607_a_at) / Fold change (Aza/veh), FGFR1OP (ProbeSet 11751329_s_at) / Fold change (ACY-1035/veh), FGFR1OP (ProbeSet 11751329_s_at) / Fold change (Aza/veh), VPS36 (ProbeSet 11739960_a_at) / Fold change (ACY-1035/veh), VPS36 (ProbeSet 11739960_a_at) / RFU SYPL1 (11715823_x_at) / Fold change /veh SYPL1 (11715823_x_at) / RFU IGFBP7 (11715501_s_at) / Fold change /veh IGFBP7 (11715501_s_at) / RFU REEP3 (11722064_at) / Fold change /veh REEP3 (11722064_at) / RFU IGLL1 (11728026_x_at) / Fold change /veh IGLL1 (11728026_x_at): dose or concentration left out as unconfirmed
Details: gene FGFR1OP; Azacitidine vs DMSO; LIST F

## Nc1ncn([C@@H]2O[C@H](CO)[C@@H](O)[C@H]2O)c(=O)n1 [azacitidine]
  Fold change (Aza/veh), FGFR1OP (ProbeSet 11751329_s_at): 0.95
